In the test the test system is nude mice, HT29 intrarenal xenograft, tumor weight T/C. Briefly: NCI In Vivo Anticancer Drug Screen. Data for tumor model HT29;CX-1 Human Adenocarcinoma (MER+) (intrarenal inoculation) in NU/NU Swiss (nude) mice. Particulars: endpoint: mean tumor weight change, higher = larger tumour. The procedure, abridged:
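Endpoint measured as tumor size or survival; ratio reported is treated group over vehicle controls.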

Setting [1] is: dose: 50.0 mg/kg/injection, schedule: Q04DX004 (sc), vehicle: saline with Tween-80.
The mark [2] stands for this setting: dose: 100.0 mg/kg/injection, schedule: Q04DX004 (sc), vehicle: saline with Tween-80.
The mark [3] stands for this setting: dose: 100.0 mg/kg/injection, schedule: Q01DX010 (sc), vehicle: saline with Tween-80.
Setting [4] is: dose: 200.0 mg/kg/injection, schedule: Q01DX010 (sc), vehicle: saline with Tween-80.
The mark [5] stands for this setting: dose: 400.0 mg/kg/injection, schedule: Q01DX010 (sc), vehicle: saline with Tween-80.
Setting [6] is: dose: 300.0 mg/kg/injection, schedule: Q04DX004 (sc), vehicle: distilled water + alcohol.
Setting [7] is: dose: 600.0 mg/kg/injection, schedule: Q04DX004 (sc), vehicle: distilled water + alcohol.
[8] abbreviates: dose: 1200.0 mg/kg/injection, schedule: Q04DX004 (sc), vehicle: distilled water + alcohol.
Where [9] appears, read: dose: 150.0 mg/kg/injection, schedule: Q04DX004 (sc), vehicle: saline with Tween-80.
Setting [10] is: dose: 300.0 mg/kg/injection, schedule: Q04DX004 (sc), vehicle: saline with Tween-80.

Values joined by “and” are separate entries in the source; they are usually repeats but may differ in a detail not shown here. Identical values can stand only once. Results filed as inconclusive are left out.

Turning to `C=CC(=O)N1CN(C(=O)C=C)CN(C(=O)C=C)C1`, the T/C by setting is: (dose: 6.25 mg/kg/injection, schedule: Q01DX010 (sc), vehicle: saline with Tween-80) 183 % of control; (dose: 12.5 mg/kg/injection, schedule: Q01DX010 (sc), vehicle: saline with Tween-80) 45 % of control.
Consider `C/C=C(\C)c1cc(=O)c2c(C)cc3c(c2o1)C(=O)c1c(O)c(C2CC(C)(N(C)C)C(OC(C)=O)C(C)O2)cc(C2CC(N(C)C)C(O)C(C)O2)c1C3=O` (stereo not drawn), for which the T/C was 102 % of control (dose: 2.5 mg/kg/injection, schedule: Q04DX004 (sc), vehicle: saline); 93 % of control (dose: 5.0 mg/kg/injection, schedule: Q04DX004 (sc), vehicle: saline); 37 % of control and 39 % of control (dose: 20.0 mg/kg/injection, schedule: Q04DX004 (sc), vehicle: saline).
`O=C(Nc1cccc2c(OC(=O)C(Cl)Cl)c(N=Nc3ccc(S(=O)(=O)Nc4nccs4)cc3)cc(N=Nc3ccc(S(=O)(=O)Nc4nccs4)cc3)c12)C(Cl)Cl` (tested in a mixture with another compound): the T/C under setting [1] is 78 % of control; the T/C under setting [2] is 94 % of control; the T/C (dose: 200.0 mg/kg/injection, schedule: Q04DX004 (sc), vehicle: saline with Tween-80) was 58 % of control; the T/C (dose: 400.0 mg/kg/injection, schedule: Q04DX004 (sc), vehicle: saline with Tween-80) was 56 % of control.
Take `CC(=O)NC(CCc1ccc(Cl)c(Cl)c1)c1cccc(O)c(=O)c1` (stereo not drawn): the T/C is, setting by setting: (dose: 50.0 mg/kg/injection, schedule: Q04DX004 (sc), vehicle: Klucel (hydroxypropylcellulose) (HPC)) 107 % of control; (dose: 100.0 mg/kg/injection, schedule: Q04DX004 (sc), vehicle: Klucel (hydroxypropylcellulose) (HPC)) 124 % of control; (dose: 200.0 mg/kg/injection, schedule: Q04DX004 (sc), vehicle: Klucel (hydroxypropylcellulose) (HPC)) 154 % of control.
On to `CN(C)CCOc1ccc2c(c1)C/C(=C/c1ncc([N+](=O)[O-])n1C)C2=O`, for which the T/C runs as follows: (dose: 50.0 mg/kg/injection, schedule: Q01DX010 (sc), vehicle: saline with Tween-80) 83 % of control; under setting [3], 78 % of control; under setting [4], 18 % of control; under setting [5], 93 % of control.
Consider `O=C(/C=C(\Cl)C(=O)NO)NO`, for which the T/C was 102 % of control (dose: 50.0 mg/kg/injection, schedule: Q04DX004 (sc), vehicle: saline); 172 % of control (dose: 100.0 mg/kg/injection, schedule: Q04DX004 (sc), vehicle: saline); 86 % of control (dose: 200.0 mg/kg/injection, schedule: Q04DX004 (sc), vehicle: saline).
On to `Cc1cc(=NO)cc(C)n1O`, for which the T/C is 73 % of control (dose: 150.0 mg/kg/injection, schedule: Q04DX004 (sc), vehicle: distilled water + alcohol); 80 % of control under setting [6]; 87 % of control under setting [7]; 65 % of control under setting [8].
Consider `NCCCC(N)(C(=O)O)C(F)F` (stereo not drawn), for which the T/C is 240 % of control under setting [6], 169 % of control under setting [7] and 75 % of control under setting [8].
Turning to `N[C@@H](Cc1ccc(N(CCCl)CCCl)cc1)C(=O)O`, the T/C is 47 % of control (dose: 4.0 mg/kg/injection, schedule: Q04DX004 (ip), vehicle: saline); 9 % of control (dose: 6.0 mg/kg/injection, schedule: Q04DX004 (ip), vehicle: saline); -5 % of control (dose: 9.0 mg/kg/injection, schedule: Q04DX004 (ip), vehicle: saline).
Turning to `CNc1n[n+](-c2ccccc2)no1`, the T/C was 117 % of control (dose: 37.5 mg/kg/injection, schedule: Q04DX004 (sc), vehicle: water) and 115 % of control (dose: 75.0 mg/kg/injection, schedule: Q04DX004 (sc), vehicle: water).
On to `CCCCCCCCCCC(OC(C)=O)C1CCC(C2CCC(C(O)CCCCCCCCCCCCC3C=C(C)OC3=O)O2)O1` (stereo not drawn), for which the T/C was 119 % of control (dose: 25.0 mg/kg/injection, schedule: Q04DX004 (sc), vehicle: water) and 92 % of control (dose: 50.0 mg/kg/injection, schedule: Q04DX004 (sc), vehicle: water).
Consider `COc1cccc2c1C(=O)c1c(O)c3c(c(O)c1C2=O)C[C@@](O)(C(=O)CO)C[C@@H]3OC1CC(OC(C)=O)C(OC(C)=O)C(C)O1` (stereo partly drawn), for which the T/C (dose: 25.0 mg/kg/injection, schedule: Q01DX010 (sc), vehicle: distilled water + Tween-80) was 35 % of control.
Consider `CCC1=C2C(=O)c3ccccc3C2=C(C)S(=O)(=O)O1`, for which the T/C reads like this: under setting [9], 70 % of control; under setting [10], 50 % of control; (dose: 1200.0 mg/kg/injection, schedule: Q04DX004 (sc), vehicle: saline with Tween-80) 89 % of control.
In the case of `CCC(C)Nc1ccc(N)cc1` (stereo not drawn), the T/C by setting is: (dose: 2.25 mg/kg/injection, schedule: Q04DX004 (sc), vehicle: Klucel (hydroxypropylcellulose) (HPC)) 64 % of control; (dose: 4.5 mg/kg/injection, schedule: Q04DX004 (sc), vehicle: Klucel (hydroxypropylcellulose) (HPC)) 64 % of control; (dose: 9.0 mg/kg/injection, schedule: Q04DX004 (sc), vehicle: Klucel (hydroxypropylcellulose) (HPC)) 101 % of control.
As for `O=S(=O)(CCl)OCCCl`, the T/C by setting is: under setting [1], 163 % of control; under setting [2], 105 % of control.
As to `Cc1ccc2c(ccc(CC(=S)[S-])[n+]2C)c1`, the T/C is 96 % of control (dose: 50.0 mg/kg/injection, schedule: Q01DX010 (sc), vehicle: Klucel (hydroxypropylcellulose) (HPC)); 85 % of control (dose: 100.0 mg/kg/injection, schedule: Q01DX010 (sc), vehicle: Klucel (hydroxypropylcellulose) (HPC)); 44 % of control (dose: 200.0 mg/kg/injection, schedule: Q01DX010 (sc), vehicle: Klucel (hydroxypropylcellulose) (HPC)); 67 % of control (dose: 400.0 mg/kg/injection, schedule: Q01DX010 (sc), vehicle: Klucel (hydroxypropylcellulose) (HPC)).
Consider `[CH3][Sn]([CH3])([Cl])[S]CCN`, for which the T/C by setting is: (dose: 18.75 mg/kg/injection, schedule: Q04DX004 (sc), vehicle: suspension in saline) 92 % of control; (dose: 37.5 mg/kg/injection, schedule: Q04DX004 (sc), vehicle: suspension in saline) 65 % of control; (dose: 75.0 mg/kg/injection, schedule: Q04DX004 (sc), vehicle: suspension in saline) 40 % of control.
For the compound `O=c1n[n+]([O-])ccn1C1OC(CO)C(O)C1O` (stereo not drawn), the T/C is, setting by setting: (dose: 250.0 mg/kg/injection, schedule: Q04DX004 (sc), vehicle: suspension in saline) 31 % of control; (dose: 500.0 mg/kg/injection, schedule: Q04DX004 (sc), vehicle: suspension in saline) 25 % of control; (dose: 1000.0 mg/kg/injection, schedule: Q04DX004 (sc), vehicle: suspension in saline) 27 % of control.
On to `CCOC(=O)c1ccc(NC(=O)Nc2nccs2)cc1`, for which the T/C runs as follows: under setting [3], 54 % of control; under setting [4], 58 % of control; under setting [5], 74 % of control; (dose: 800.0 mg/kg/injection, schedule: Q01DX010 (sc), vehicle: saline with Tween-80) 67 % of control.
In the case of `COC1/C=C/C=C(/C)Cc2cc(O)c(Cl)c(c2)N(C)C(=O)CC(OC(=O)C(C)C)C2(C)OC2C(C)C2CC1(O)NC(=O)O2` (stereo not drawn), the T/C is 123 % of control (dose: 0.5 mg/kg/injection, schedule: Q04DX004 (sc), vehicle: saline + alcohol); 78 % of control (dose: 1.0 mg/kg/injection, schedule: Q04DX004 (sc), vehicle: saline + alcohol); 78 % of control (dose: 2.0 mg/kg/injection, schedule: Q04DX004 (sc), vehicle: saline + alcohol); 65 % of control (dose: 4.0 mg/kg/injection, schedule: Q04DX004 (sc), vehicle: saline + alcohol).
On to `CN1CCc2c(c3ccccc3c3ccccc23)C1`, for which the T/C by setting is: (dose: 150.0 mg/kg/injection, schedule: Q04DX004 (sc), vehicle: Klucel (hydroxypropylcellulose) (HPC)) 105 % of control; (dose: 300.0 mg/kg/injection, schedule: Q04DX004 (sc), vehicle: Klucel (hydroxypropylcellulose) (HPC)) 80 % of control; (dose: 600.0 mg/kg/injection, schedule: Q04DX004 (sc), vehicle: Klucel (hydroxypropylcellulose) (HPC)) 111 % of control.
As to `Cc1cc(SCC(=O)c2ccc(Br)cc2)cc(C)[o+]1`, the T/C is 41 % of control (dose: 100.0 mg/kg/injection, schedule: Q01DX010 (sc), vehicle: saline) and 76 % of control (dose: 200.0 mg/kg/injection, schedule: Q01DX010 (sc), vehicle: saline).
Turning to `CCCCCCCCCCCCSC1=C(Cl)C(=O)C(OC)=C(OC)C1=O`, the T/C (dose: 75.0 mg/kg/injection, schedule: Q04DX004 (sc), vehicle: saline with Tween-80) was 76 % of control; the T/C under setting [9] is 36 % of control; the T/C under setting [10] was 25 % of control.

Source of the values: PubChem BioAssay AID206 (DTP/NCI, 2004).
